Measured values reported in US9023849B2, “Substituted fused imidazoles and pyrazoles and use thereof” (Bayer Intellectual Property GmbH, priority 2012, dated 2015).

Tests used:
[1] = system: recombinant guanylate cyclase reporter cell line; experiment: Effect on a recombinant guanylate cyclase reporter cell line; format: cell-based; details: read-out: MEC (minimal effective concentration)
Experimental: B-2. Effect on a Recombinant Guanylate Cyclase Reporter Cell Line
The cellular action of the inventive compounds is determined on a recombinant guanylate cyclase reporter cell line as described in F. Wunder et al., Anal. Biochem. 339, 104-112 (2005).

human PDE 5 = human PDE 5 (Homo sapiens (Human), UniProt O76074); experiment: Inhibition of human phosphodiesterase 5 (PDE 5), SPA assay; format: biochemical; details: PDE 5 preparation from human platelets, [8-3H]cGMP substrate
Experimental: B-6. Inhibition of Human Phosphodiesterase 5 (PDE 5)
PDE 5 preparations are obtained from human platelets by disruption (Microfluidizer®, 800 bar, 3 passes), followed by centrifugation (75 000 g, 60 min, 4° C.) and ion exchange chromatography of the supernatant on a Mono Q 10/10 column (linear sodium chloride gradient, elution with a 0.2-0.3M solution of sodium chloride in buffer (20 mM Hepes pH 7.2, 2 mM magnesium chloride). Fractions having PDE 5 activity are combined (PDE 5 preparation) and stored at −80° C.
To determine their in vitro action on human PDE 5, the test substances are dissolved in 100% DMSO and serially diluted. Typically, dilution series (1:3) from 200 μM to 0.091 μM are prepared (resulting final concentrations in the test: 4 μM to 0.0018 μM). In each case 2 μl of the diluted substance solutions are placed into the wells of microtitre plates (Isoplate-96/200 W; Perkin Elmer). Subsequently, 50 μl of a dilution of the above-described PDE 5 preparation are added. The dilution of the PDE 5 preparation is selected such that, during the later incubation, less than 70% of the substrate is converted (typical dilution: 1:100; dilution buffer: 50 mM tris/hydrochloric acid pH 7.5, 8.3 mM magnesium chloride, 1.7 mM EDTA, 0.2% BSA). The substrate, [8-^3H]cyclic guanosine-3′,5′-monophosphate (1 μCi/μl; Perkin Elmer) is diluted 1:2000 with assay buffer (50 mM tris/hydrochloric acid pH 7.5, 8.3 mM magnesium chloride, 1.7 mM EDTA) to a concentration of 0.0005 μCi/μl. By addition of 50 μl (0.025 μCi) of the diluted substrate, the enzyme reaction is finally started. The test mixtures are incubated at room temperature for 60 min and the reaction is stopped by adding 25 μl of a suspension of 18 mg/ml yttrium scintillation proximity beads in water (phosphodiesterase beads for SPA assays, RPNQ 0150, Perkin Elmer). The microtitre plates are sealed with a film and left to stand at room temperature for 60 min Subsequently, the plates are analysed for 30 s per well in a Microbeta scintillation counter (Perkin Elmer). IC50 values are determined using the graphic plot of the substance concentration against percentage PDE 5 inhibition.

rabbit aorta rings = experiment: Vasorelaxant effect in vitro (rabbit aorta rings precontracted with phenylephrine); details: Oryctolagus cuniculus, phenylephrine contraction, read-out: IC50 (concentration needed to reduce the magnitude of the phenylephrine contraction by 50%)
Experimental: B-1. Vasorelaxant Effect In Vitro
Rabbits are stunned by a blow to the neck and exsanguinated. The aorta is removed, freed from adhering tissue and divided into rings of width 1.5 mm, which are placed individually under prestress into 5 ml organ baths with carbogen-sparged Krebs-Henseleit solution at 37° C. having the following composition (each mM): sodium chloride: 119; potassium chloride: 4.8; calcium chloride dihydrate: 1; magnesium sulphate heptahydrate: 1.4; potassium dihydrogenphosphate: 1.2; sodium hydrogencarbonate: 25; glucose: 10. The contractile force is determined with Statham UC2 cells, amplified and digitalized using A/D transducers (DAS-1802 HC, Keithley Instruments Munich), and recorded in parallel on linear recorders.
To obtain a contraction, phenylephrine is added to the bath cumulatively in increasing concentration. After several control cycles, the substance to be studied is added in increasing dosage each time in every further run, and the magnitude of the contraction is compared with the magnitude of the contraction attained in the last preceding run. This is used to calculate the concentration needed to reduce the magnitude of the control value by 50% (IC50 value). The standard administration volume is 5 μl; the DMSO content in the bath solution corresponds to 0.1%.

Row | IC50 (human PDE 5) | IC50 (rabbit aorta rings) | Structure (SMILES) | minimal effective concentration [1]
1 | 690 nM |  | CC1(C)C(=O)Nc2nc(-n3nc(Cc4ccccc4F)c4cc(F)ccc43)nc(I)c21 [Example 6, 2-[5-Fluoro-3-(2-fluorobenzyl)-1H-indazol-1-yl]-4-iodo-5,5-dimethyl-5,7-dihydro-6H-pyrrolo[2,3-d]pyrimidin-6-one] | 0.766 µM
2 | 690 nM |  | CC1(C)C(=O)Nc2nc(-n3nc(Cc4ccccc4F)c4ccccc43)nc(I)c21 [Example 3, 2-[3-(2-Fluorobenzyl)-1H-indazol-1-yl]-4-iodo-5,5-dimethyl-5,7-dihydro-6H-pyrrolo[2,3-d]pyrimidin-6-one] | 0.3 µM
3 | 4000 nM | 601 nM | CC1(C)C(=O)Nc2nc(-c3nn(Cc4ccccc4F)c4c3CCC4)ncc21 [Example 11, 2-[1-(2-Fluorobenzyl)-1,4,5,6-tetrahydrocyclopenta[c]pyrazol-3-yl]-5,5-dimethyl-5,7-dihydro-6H-pyrrolo[2,3-d]pyrimidin-6-one] | 0.3 µM
4 | 440 nM | 8060 nM | CCc1nc(-n2nc(Cc3ccccc3F)c3cc(F)ccc32)nc2c1C(C)(C)C(=O)N2 [Example 23, 4-Ethyl-2-[5-fluoro-3-(2-fluorobenzyl)-1H-indazol-1-yl]-5,5-dimethyl-5,7-dihydro-6H-pyrrolo[2,3-d]pyrimidin-6-one] | 1 µM
5 | 230 nM | 292 nM | Cc1ncc2c(-c3ncc4c(n3)NC(=O)C4(C)C)nn(Cc3cccc(F)c3F)c2n1 [Example 17, 2-[1-(2,3-Difluorobenzyl)-6-methyl-1H-pyrazolo[3,4-d]pyrimidin-3-yl]-5,5-dimethyl-5,7-dihydro-6H-pyrrolo[2,3-d]pyrimidin-6-one] | 0.3 µM
6 | 85 nM | 641 nM | CC1(C)C(=O)Nc2nc(-n3nc(Cc4ccccc4F)c4ncc(F)cc43)nnc21 [Example 9, 3-[6-Fluoro-3-(2-fluorobenzyl)-1H-pyrazolo[4,3-b]pyridin-1-yl]-7,7-dimethyl-5,7-dihydro-6H-pyrrolo[2,3-e][1,2,4]triazin-6-one] | 0.1 µM
7 | 370 nM | 124 nM | CC1(C)C(=O)Nc2nc(-c3nn(Cc4ccccc4F)c4ncncc34)nnc21 [Example 19, 3-[1-(2-Fluorobenzyl)-1H-pyrazolo[3,4-d]pyrimidin-3-yl]-7,7-dimethyl-5,7-dihydro-6H-pyrrolo[2,3-e][1,2,4]triazin-6-one] | 0.1 µM
8 | 340 nM | 1670 nM | Cc1nc(-n2nc(Cc3ccccc3F)c3cc(F)ccc32)nc2c1C(C)(C)C(=O)N2 [Example 27, 2-[5-Fluoro-3-(2-fluorobenzyl)-1H-indazol-1-yl]-4,5,5-trimethyl-5,7-dihydro-6H-pyrrolo[2,3-d]pyrimidin-6-one] | 0.3 µM
9 | 440 nM | 22 nM | CC1(C)C(=O)Nc2nc(-n3nc(Cc4ccccc4F)c4ccccc43)ncc21 [Example 5, 2-[3-(2-Fluorobenzyl)-1H-indazol-1-yl]-5,5-dimethyl-5,7-dihydro-6H-pyrrolo[2,3-d]pyrimidin-6-one] | 0.03 µM

Continued, compound first:

Row | Structure (SMILES) | IC50 (human PDE 5) | IC50 (rabbit aorta rings) | minimal effective concentration [1]
10 | CC1(C)C(=O)Nc2nc(-c3nn(Cc4ncccc4F)c4cc(Cl)ccc34)nnc21 [Example 25, 3-[6-Chloro-1-[(3-fluoropyridin-2-yl)methyl]-1H-indazol-3-yl]-7,7-dimethyl-5,7-dihydro-6H-pyrrolo[2,3-e][1,2,4]triazin-6-one] | 160 nM |  | 0.3 µM
11 | CC1(C)C(=O)Nc2nc(-c3nn(Cc4ccccc4F)c4c3CCC4)nnc21 [Example 12, 3-[1-(2-Fluorobenzyl)-1,4,5,6-tetrahydrocyclopenta[c]pyrazol-3-yl]-7,7-dimethyl-5,7-dihydro-6H-pyrrolo[2,3-e][1,2,4]triazin-6-one] | 3500 nM |  | 1 µM
12 | CC1(C)C(=O)Nc2nc(-n3nc(CCC(F)(F)C(F)(F)F)c4cc(F)ccc43)nnc21 [Example 22, 3-[5-Fluoro-3-(3,3,4,4,4-pentafluorobutyl)-1H-indazol-1-yl]-7,7-dimethyl-5,7-dihydro-6H-pyrrolo[2,3-e][1,2,4]triazin-6-one] | 530 nM | 7730 nM | 1 µM
13 | CC1(C)C(=O)Nc2nc(-c3nn(CCC(F)(F)C(F)(F)F)c4cc(Cl)ccc34)nnc21 [Example 26, 3-[6-Chloro-1-(3,3,4,4,4-pentafluorobutyl)-1H-indazol-3-yl]-7,7-dimethyl-5,7-dihydro-6H-pyrrolo[2,3-e][1,2,4]triazin-6-one] | 95 nM | 794 nM | 0.3 µM
14 | CCCc1nc(-n2nc(Cc3ccccc3F)c3ccccc32)nc2c1C(C)(C)C(=O)N2 [Example 28, 2-[3-(2-Fluorobenzyl)-1H-indazol-1-yl]-5,5-dimethyl-4-propyl-5,7-dihydro-6H-pyrrolo[2,3-d]-pyrimidin-6-one] | 450 nM | 10000 nM | 1 µM
15 | CC1(C)C(=O)Nc2nc(-n3nc(Cc4c(F)ccc(F)c4F)c4cc(Cl)ccc43)ncc21 [Example 2, 2-[5-Chloro-3-(2,3,6-trifluorobenzyl)-1H-indazol-1-yl]-5,5-dimethyl-5,7-dihydro-6H-pyrrolo[2,3-d]pyrimidin-6-one] | 3700 nM | 5160 nM | 0.065 µM
16 | CC1(C)C(=O)Nc2nc(-c3nn(Cc4ccccc4F)c4c3CCC4)nc(I)c21 [Example 10, 2-[1-(2-Fluorobenzyl)-1,4,5,6-tetrahydrocyclopenta[c]pyrazol-3-yl]-4-iodo-5,5-dimethyl-5,7-dihydro-6H-pyrrolo[2,3-d]pyrimidin-6-one] | 480 nM |  | 1 µM
17 | CC1(C)C(=O)Nc2nc(-c3nn(Cc4ccccc4F)c4cc(Cl)ccc34)nnc21 [Example 24, 3-[6-Chloro-1-(2-fluorobenzyl)-1H-indazol-3-yl]-7,7-dimethyl-5,7-dihydro-6H-pyrrolo[2,3-e][1,2,4]triazin-6-one] | 25 nM |  | 0.1 µM
18 | Cc1ncc2c(-c3ncc4c(n3)NC(=O)C4(C)C)nn(Cc3ccccc3F)c2n1 [Example 15, 2-[1-(2-Fluorobenzyl)-6-methyl-1H-pyrazolo[3,4-d]pyrimidin-3-yl]-5,5-dimethyl-5,7-dihydro-6H-pyrrolo[2,3-d]pyrimidin-6-one] | 310 nM | 78 nM | 0.1 µM
19 | CC1(C)C(=O)Nc2nc(-n3nc(Cc4ccccc4F)c4cc(F)ccc43)ncc21 [Example 8, 2-[5-Fluoro-3-(2-fluorobenzyl)-1H-indazol-1-yl]-5,5-dimethyl-5,7-dihydro-6H-pyrrolo[2,3-d]pyrimidin-6-one] | 400 nM | 95 nM | 0.3 µM
20 | Cc1ncc2c(-c3nnc4c(n3)NC(=O)C4(C)C)nn(Cc3cccc(F)c3F)c2n1 [Example 18, 3-[1-(2,3-Difluorobenzyl)-6-methyl-1H-pyrazolo[3,4-d]pyrimidin-3-yl]-7,7-dimethyl-5,7-dihydro-6H-pyrrolo[2,3-e][1,2,4]triazin-6-one] | 16 nM | 1140 nM | 0.3 µM
21 | CC1(C)C(=O)Nc2nc(-n3nc(Cc4ccccc4F)c4cc(F)ccc43)nnc21 [Example 21, 3-[5-Fluoro-3-(2-fluorobenzyl)-1H-indazol-1-yl]-7,7-dimethyl-5,7-dihydro-6H-pyrrolo[2,3-e][1,2,4]triazin-6-one] | 75 nM | 1130 nM | 0.1 µM
